Experimental findings from the Deep4Chem optical property database are described below.

This data set can be described thus: solvent given as SMILES.

Under “in ClCCl”, `F[B-]1(F)n2c(Cl)c(Cl)c(Br)c2C(Oc2ccccc2)=C2C(Br)=C(Cl)C(Cl)=[N+]21` had an emission maximum of 541 nm.
`C[Si]1(C)c2cc(-c3ccc(-c4cccs4)s3)ccc2C=Cc2ccc(-c3ccc(-c4cccs4)s3)cc21` displayed an emission maximum (in ClCCl) of 463 nm.
Under “in CN(C)C=O”, `CCN(CC)c1ccc(-c2nc(Oc3ccc(-c4nc5ccc(Cl)cc5o4)cc3)nc(Oc3ccc(-c4nc5ccc(Cl)cc5o4)cc3)n2)cc1` came in with an emission maximum of 424 nm.
In turn, `Cc1ccc(-n2c(C)ccc2C)cc1` displayed an emission maximum (in CC#N) of 409 nm and an emission maximum (in CCCCCC) of 337 nm.
Consider `Cc1ccc(N2C(c3ccccc3[N-]S(=O)(=O)c3ccc(C)cc3)=[NH+]C(c3ccccc3)C2c2ccccc2)cc1` (stereo not drawn), for which, for the setting “in Cc1ccccc1”, the emission maximum is listed as 499 nm.
On to `O=c1c2cc3ccc4cccc5ccc(c2c(=O)n1-c1ccccc1)c3c45`, for which the emission maximum (in ClC(Cl)Cl) was 461 nm.
Where the note is “in C1CCOC1”, `C#Cn1c(-c2cc(-c3nc4ccccc4n3C#C)cc(-c3nc4ccccc4n3C#C)c2)nc2ccccc21` returned an emission maximum of 386.5 nm.
`N#Cc1nn(-c2c(Cl)cccc2Cl)nc1N1CCCC1` registered an emission maximum (in CC#N) of 418 nm.
With `C(=C\c1cnccn1)/c1ccc2nccnc2c1`, the emission maximum came out at 403 nm (in CCCCCC); 435 nm (in CCO); 443 nm (in CO); 417 nm (in ClCCl); 410 nm (in c1ccccc1).
For `COc1cc(C=O)cc(-c2[nH]c(=O)n3c2-c2ccccc2C3=O)c1O`, the emission maximum (in CC#N) amounted to 473 nm, the emission maximum (in CO) came to 490 nm and the emission maximum (in ClCCl) stood at 467 nm.
Where the note is “in ClCCl”, `Cc1ccc(C#Cc2ccc3nc4ccc(C#Cc5ccc(C)cc5)cn4c(=O)c3c2)cc1` showed an emission maximum of 480 nm.
With `c1ccc(-c2nc(-c3ccccc3)nc(-c3ccc(-n4c5ccccc5c5c6c(ccc54)C4(c5ccccc5-c5ccccc54)c4ccccc4-6)cc3)n2)cc1`, the emission maximum by setting is: (in C1CCOC1) 488.19 nm; (in C1COCCO1) 453.7 nm; (in CN(C)C=O) 525.23 nm; (in Cc1ccccc1) 444 nm; (in ClC(Cl)Cl) 496.99 nm.
Take `CCCCCCn1c2cc(/C=C(\C#N)c3cccs3)ccc2c2ccc(/C=C(\C#N)c3cccs3)cc21`: for the setting “in ClC(Cl)Cl”, the emission maximum worked out at 469.48 nm.
Regarding `O=S(=O)([O-])c1cc([O-])c2ccc3c(S(=O)(=O)[O-])cc(S(=O)(=O)[O-])c4ccc1c2c34`, the emission maximum runs as follows: (in CC#N) 513 nm; (in CC(C)O) 511.01 nm; (in CCO) 510 nm; (in CO) 509.01 nm; (in NC=O) 519 nm; (in O) 511.01 nm. In addition, the emission maximum runs as follows: (in OC(C(F)(F)F)C(F)(F)F) 506 nm; (in OCC(F)(F)F) 508 nm; (in OCCO) 512.01 nm.
As to `N#Cc1c(N2CCCCC2)cc(-c2cccc3ccccc23)c2c1C(=O)c1ccccc1-2`, for the setting “in C1CCOC1”, the emission maximum stood at 460 nm.
As for `Cc1cc(C#Cc2ccccc2)c2ccc3c(C#Cc4ccccc4)cc(C#Cc4ccccc4)c4ccc1c2c43`, the emission maximum was 461 nm (in CS(C)=O) and 460 nm (in ClC(Cl)(Cl)Cl).
As for `CCOC(=O)c1c(-c2cc3ccccc3oc2=O)nn(-c2cccc(F)c2)c1C(=O)OCC`, the emission maximum (in ClCCl) is listed as 401 nm.
For the compound `CN(C)c1ccc(/C=C/c2cc[n+](CCCCCCCCCCCC[n+]3ccc(/C=C/c4ccc(N(C)C)cc4)cc3)cc2)cc1`, the emission maximum runs as follows: (in CC1COC(=O)O1) 602 nm; (in CC#N) 602 nm; (in CC(C)=O) 602 nm; (in CC(C)O) 590 nm; (in CCO) 593 nm; (in CN(C)C=O) 602 nm. The emission maximum is reported as 597 nm (in CO); 607 nm (in CS(C)=O); 580 nm (in ClC(Cl)Cl); 597 nm (in O); 598 nm (in c1ccncc1).
